Test results as given in patent publication US12016336B2 (priority 2020, dated 2024).
Where a name gives a salt, the structure may show the parent alone. Read-outs that look alike come from different tables or passages of the source.

Key:
[1] = assay type: physicochemical
[2] = room temperature, 90% H2O/D2O
[3] = assay type: physicochemical; remark: listed apart in the source
Solubility in water = assay type: physicochemical
[4] = assay type: physicochemical; remark: listed apart in the source
people = settings: exposure in the air; cited from earlier work
[5] = tested on: radish, peas, and lettuce plants; settings: Carter et al., cited from earlier work
soybeans = assay: Field trial: harvest yield of soybeans (Example 27); assay type: in vivo; settings: 2 kg per acre, side dressing, versus not exposed
Description: All essential plant nurtients (N, P, K, and S) were applied in non-limiting amounts. Prior to planting soybeans, the fields were fertilized with 60 lb acre of P2O5, 80 lb per acre of K20, and 20 lb per acre of sulfur. The soybean seeds were a 2.8-3.2 relative maturity planted at 120,000 to 140,000 seeds per acre. All field management were designed to effectively control weed and insect pests to optimize soybean growth and yield. The soybeans were planted and either 0, 0.5, 1.0, or 2.0 kg per acre of dibutyldithiophosphate was applied as a side dressing to the soybean plants. The dibutyldithiophosphate was dissolved in water and applied. The harvest weight was determined for each plot and corrected for slight differences in moisture content.

corn = assay: Growth of corn in pots exposed to dibutyldithiophosphate (Example 20); assay type: in vivo; settings: 4 weeks
Experimental: Corn was planted in 6″ TEKU pots. The pots were packed finger tight with potting mix #4 from Beautiful Land Products. The corn seeds were planted approximately 1.5 inches deep. Fifty seeds of corn were planted for every loading of dibutyldithiophosphate ammonium salt. After the seeds were added to the soil the dibutyldithiophosphate ammonium salt was added as a fully dissolved aqueous solution. Tap water (500 mL) was added to a measured amount of the salt to yield desired amount in 10 mL After mixing well for 10 minutes, the aqueous solution was added to each plant via syringe (10 mL) immediately around and on the seed. After adding the salt, the plants were moved outside in full sunlight until harvest. The corn plants were watered daily.
The corn was harvested after 4 weeks. Plant height was taken by straightening the corn plant out by the leaves and measuring from the base of the shoot to the longest point on the leaf. After removing the roots, the weight of the shoot and leaves was measured using a balance.
Statistical analysis was performed using IBM SPSS Statistics 25. Non-parametric Kruskal-Wallis test was performed to determine significance. Data represented are mean±standard error with ** indicating α<0.05 and * indicating α<0.1.

[6] = water buffered at pH 6.7, FIG. 4

With `CCCCOP(=S)(S)OCCCC` [Example 1, Dibutyldithiophosphate Ammonium Salt] the “Rate of first-step of hydrolysis (85° C.)” value ([1]; 85° C., 90% H2O/D2O) was 0.00096 h⁻¹, the “Time to complete hydrolysis” value ([1]; 85° C., 90% H2O/D2O, to phosphoric acid only) was 180 days and the “Hydrolysis slower than the compound of Example 2” value ([1]; 85° C., versus Example 2) was 3.5 ×. The “Hydrolysis slower than the dithiophosphate of Example 3” value ([1]; 85° C., versus Example 3) was 7.4 ×, the “Hydrolysis slower than the dithiophosphate of Example 4” value ([1]; 85° C., versus Example 4) was 1.4 × and the “Percent Degradation” value ([2]; 30 days, 31P NMR) was under 3%. The “Release of H2S (rank among the dithiophosphates)” value [3, 6] was “lowest”.
In the case of `CC(C)[C@@H]1CC[C@@H](C)C[C@H]1OP(=S)([S-])O[C@@H]1C[C@H](C)CC[C@H]1C(C)C.[K+]` [Example 5], the “Solubility in water at 5 mM” value (Solubility in water; concentration of 5 mM) is reported as “mostly insoluble in water”, the “Solubility in water of the potassium and triethylamine salts” value (Solubility in water) is reported as “insoluble in water” and the “Release of H2S at 5 mM” value ([3]; pH 6.7) is reported as “released H2S”.
In the case of `CC1(C)[C@@H]2CC[C@]1(C)[C@H](OP(=S)(S)O[C@@H]1C[C@H]3CC[C@@]1(C)C3(C)C)C2` [Example 7], the “Solubility in water of the potassium and triethylamine salts” value (Solubility in water) is reported as “insoluble in water”.
In the case of `CC(C)(C)OP(=S)([S-])OC(C)(C)C.[Na+]` [Example 8, Di(Tert-Butanol)Dithiophosphate Sodium Salt], the “Rate of hydrolysis slower at room temperature than at 85° C.” value ([1]; room temperature versus 85° C.) is reported as 2,600 ×, the “Rate of first-step of hydrolysis” value ([1]; room temperature, 90% H2O/D2O) is reported as 0.0051 h⁻¹ and the “Percent degraded at day 12” value ([2]; day 12) is reported as 62%. The “Percent degraded at day 20” value ([2]; day 20) was 88%, the “Release of H2S (rank among the dithiophosphates)” value [3, 6] was “highest” and the “ΔΔG^‡” value ([4]; 25° C. versus 85° C.) was 0.526 kcal/mol. For the same compound, the “ΔH^‡” value ([4]; rate constants measured from 25 to 85° C.) was 27.84 kcal/mol.
In the case of `S=P(S)(Sc1ccccc1)Sc1ccccc1` [Example 13], the “Solubility in water of the potassium and triethylamine salts” value (Solubility in water) is reported as “insoluble in water”.
In the case of `S=P1(S)OCCS1` (stereo not drawn) [Example 14], the “Release of H2S (rank among the dithiophosphates)” value ([3]; pH 6.7) is reported as “highest”.
For `S` [Example H2S, hydrogen sulfide], the “Level immediately dangerous to life and health” value (people) is given as 100 ppm.
In the case of `C1COCCN1.COc1ccc(P(=S)(S)N2CCOCC2)cc1` (stereo not drawn) [GYY-4137], the “Growth of radish, peas, and lettuce plants” value [5] is listed as “increased the growth” and the “Harvest yield of radishes” value ([5]; milligram loadings) is listed as “doubled”.
With `CCCCOP(=S)(S)OCCCC` [dibutyldithiophosphate] the “Increase in harvest yield of soybeans” value (soybeans) was 4.4%, the “Increase in weight of the corn plants” value (corn; 1 mg added to the soil adjacent to the seed, versus plants grown without) was 39% and the “Weight of the corn plants (significance)” value (corn; 1, 10, 50, and 75 mg loadings) was “statistically significant improvements”. The “Heights of the corn plants” value (corn; all loadings) was “Little statistically significant difference”.
